Results on six substances are retold here after patent publication US20060059579A1, “Model animals non-responsive to mycobacteria-origin lipoprotein/lipopeptide” (Japan Science and Technology Agency, priority 2002, published 2006).

The test system of assay [1] is TLR1^-/- macrophages. The format is cell-based, mouse.
The next assay deals with TLR2^-/- macrophages. The following applies: Science 291, 1544, 2001; cited from earlier work.
Assay [2] concerns peritoneal macrophages of wild-type mice. The format is cell-based, mouse.
For assay [3], the system named is TLR1^-/- macrophages. The format is cell-based, mouse. The source holds these as a separate data set.
In a further assay the target is T1, TLR2 (Homo sapiens, UniProt O60603).
T1 construct: expressed in transfected cells; host or cells: HEK 293 cells, transient transfection
T1 sequence (O60603 21-784, species assumed): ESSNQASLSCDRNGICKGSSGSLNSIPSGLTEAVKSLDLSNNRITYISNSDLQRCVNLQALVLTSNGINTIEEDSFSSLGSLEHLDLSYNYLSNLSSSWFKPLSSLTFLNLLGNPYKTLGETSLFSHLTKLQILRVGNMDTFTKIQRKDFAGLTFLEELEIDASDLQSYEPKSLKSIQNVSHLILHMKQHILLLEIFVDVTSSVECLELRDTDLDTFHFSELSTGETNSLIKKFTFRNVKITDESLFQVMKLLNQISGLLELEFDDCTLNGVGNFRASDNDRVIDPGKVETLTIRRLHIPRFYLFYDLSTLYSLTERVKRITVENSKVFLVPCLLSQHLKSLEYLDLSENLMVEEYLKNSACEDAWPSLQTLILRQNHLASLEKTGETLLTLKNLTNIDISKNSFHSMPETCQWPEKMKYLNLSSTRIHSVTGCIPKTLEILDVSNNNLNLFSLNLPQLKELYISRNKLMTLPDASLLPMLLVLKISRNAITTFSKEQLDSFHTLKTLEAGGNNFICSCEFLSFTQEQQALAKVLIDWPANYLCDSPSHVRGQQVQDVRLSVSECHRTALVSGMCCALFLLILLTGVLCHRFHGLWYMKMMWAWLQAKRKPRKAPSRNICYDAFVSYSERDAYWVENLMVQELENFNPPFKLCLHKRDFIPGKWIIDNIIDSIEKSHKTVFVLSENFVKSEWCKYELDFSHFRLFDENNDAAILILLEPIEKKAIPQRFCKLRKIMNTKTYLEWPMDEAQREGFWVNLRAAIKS
T1 sequence (Q15399 25-786, species assumed, further chain): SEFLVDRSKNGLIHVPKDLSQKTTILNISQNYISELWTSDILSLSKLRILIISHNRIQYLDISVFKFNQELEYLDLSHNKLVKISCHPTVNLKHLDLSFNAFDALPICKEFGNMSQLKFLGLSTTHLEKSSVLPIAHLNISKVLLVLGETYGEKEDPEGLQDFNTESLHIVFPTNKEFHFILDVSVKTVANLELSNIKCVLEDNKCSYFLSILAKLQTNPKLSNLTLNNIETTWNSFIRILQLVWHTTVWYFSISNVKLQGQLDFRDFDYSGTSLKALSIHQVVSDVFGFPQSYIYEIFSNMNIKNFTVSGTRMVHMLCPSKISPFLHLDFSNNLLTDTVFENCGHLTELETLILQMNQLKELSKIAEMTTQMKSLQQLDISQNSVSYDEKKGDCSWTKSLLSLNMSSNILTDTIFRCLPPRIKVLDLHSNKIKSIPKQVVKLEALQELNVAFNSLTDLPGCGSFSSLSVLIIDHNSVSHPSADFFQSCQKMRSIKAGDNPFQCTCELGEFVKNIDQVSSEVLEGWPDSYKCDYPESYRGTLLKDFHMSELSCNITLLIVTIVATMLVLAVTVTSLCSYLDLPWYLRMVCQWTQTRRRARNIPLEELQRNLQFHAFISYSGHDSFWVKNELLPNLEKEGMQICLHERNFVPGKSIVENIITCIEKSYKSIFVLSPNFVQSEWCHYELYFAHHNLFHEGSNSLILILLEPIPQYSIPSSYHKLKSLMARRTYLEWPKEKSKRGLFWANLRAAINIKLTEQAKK
Briefly: NF-κB pELAM-luciferase reporter assay in HEK 293 cells expressing TLR2. The format is cell-based. The following applies: expression of TLR2, 10 ng/ml for 8 h. The procedure:
(§1) HEK 293 cells were transformed with TLR1, TLR2 and TLR6 expression vectors, and pELAM-luciferase reporter plasmid were used together. For normalization of transfection efficiency by lipofectamine 2000 (Invitrogen), the indicated vector was used with pELAM-luciferase reporter plasmid (J. Bio. Chem. 274, 10689, 1999) and pRL-TK (Promega) to transfect transiently […] cells. 24 h after transfection, the cells were stimulated with 10 ng/ml of Pam3CSK4 for 8 h. Then, the cells were lysed, and luciferase activity was measured by using Dual-luciferase reporter assay system (Promega) according to the manufacturer's instruction.
For orientation: In a reporter assay the amount or activity of a reporter protein is the signal.

The next assay deals with T2, TLR6 and TLR2 (Homo sapiens, UniProt O60603).
T2 construct: expressed in transfected cells; host or cells: HEK 293 cells, transient transfection
T2 sequence (O60603 21-784, species assumed): as the sequence (O60603 21-784, species assumed) above
Kind of assay: NF-κB pELAM-luciferase reporter assay in HEK 293 cells co-expressing TLR6 and TLR2. The format is cell-based. The following applies: co-expression of TLR6 and TLR2, 10 ng/ml for 8 h. The procedure: as §1

Assay [4] deals with T3, TLR1 and TLR2 (Homo sapiens, UniProt O60603+Q15399). Kind of assay: NF-κB pELAM-luciferase reporter assay in HEK 293 cells co-expressing TLR1 and TLR2. The format is cell-based. Also on record: expressed in transfected cells; host or cells: HEK 293 cells, transient transfection. The note with it: co-expression of TLR1 with TLR2, 10 ng/ml for 8 h. On the procedure:
as §1

Assay [5] has as its target T3, TLR1 and TLR2. Kind of assay: Co-immunoprecipitation of HA-tagged TLR1 and Flag-tagged TLR2 in HEK293 cells. The format is binding. Set-up: expressed in transfected cells; host or cells: HEK293 cells. On the procedure:
HEK293 cells were co-transfected with 3 μg Flag-tagged TLR2, TLR4 or 6 μg HA-tagged TLR1. After 36 h, the cells were lysed in the lysis buffer containing 1.0% Nonidet P-40, 150 mM NaCl, 20 mM tris-HCl (pH 7.5), 5 mM EDTA and aprotease inhibitor cocktail tablet, Complete (Roche Diagnostics). The solution was pre-treated for 1 h with protein G-sepharose, and immunoprecipitated for 12 h by using 2 μg anti-Flag M2 antibody or 2 μg anti-HA 12 CA5 antibody. The beads were washed four times in the lysis buffer, and the immunoprecipitated proteins were eluted in SDS-PAGE sample buffer solution, separated on SDS-PAGE and transferred onto PVDF membrane. HA-tagged TLR1 was detected with anti-HA antibody (Roche Diagnostics) and HRP-tagged anti-mouse Ig antibody. Flag-tagged proteins were identified with the second antibody, HRP-conjugated anti-Flag M2 antibody. Then, the antibodies were detected by enhanced chemiluminescence system (Dupont).

T3 sequence (Q15399 25-786, species assumed): as the sequence (Q15399 25-786, species assumed, further chain) above
T3 sequence (O60603 21-784, species assumed): as the sequence (O60603 21-784, species assumed) above

Consider “N-myristyl-S-dimyristyl glyceryl (Myr3) CSK4 [Myr3CSK4]”, for which, in the assay on TLR1^-/- macrophages [1], the TNFα production entry is “impaired”.

With “19 kD lipoprotein: Native 19-kD lipoprotein purified from Mycobacterium tuberculosis”, the TNFα production result was “impaired” with TLR1^-/- macrophages [1] and “generated TNFα in a dose-dependent manner” in assay [2]. The Cytokine production result in the assay on TLR2^-/- macrophages was “inhibited”. Moreover, the IL-6 production result in the assay on TLR1^-/- macrophages [3] is given as “lower in TLR1^-/- macrophages compared with that of wild-type cells”.

In the case of MALP-2, the TNFα production result with TLR1^-/- macrophages [1] is recorded as “responded normally”.

On to “N-palmitoyl-S-dipalmitoyl glyceryl (Pam3) CSK4 [Pam3CSK4]”, for which, in the assay with TLR1^-/- macrophages [1], the TNFα production result is reported as “significantly impaired”. In addition, the “NF-κB activation (luciferase activity)” value on TLR2 is listed as “conferred the NF-κB activation”; at TLR6 and TLR2, “did not augment the NF-κB activation”; at TLR1 and TLR2 [4], “significantly enhanced the activation”. The “extent of association between TLR1 and TLR2 on stimulation” value on TLR1 and TLR2 [5] is reported as “did not affect”.

For “N-palmitoyl-S-dilauryl glyceryl (N-Pam-S-Lau2)CSK4 [Lau2N-PamCSK4]”, the TNFα production result with TLR1^-/- macrophages [1] is given as “considerably impaired”.

Consider “N-lauryl-S-dilauryl gylceryl (Lau3)CSK4 [Lau3CSK4]”, for which, in the assay on TLR1^-/- macrophages [1], the TNFα production result is recorded as “impaired”.
